Source: the supplement of paper PMC11451515

Experiments:
Conditions in all cases: 48 h
SEM cells [1] = assay: AUC of viability dose-response curve (% viability x log10 dose units); higher = less sensitive
Method in brief: (§1)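 Area under the curve was integrated by trapezoidal rule from a log-logistic fit of normalised viability, with curves exceeding full viability scaled and quality-control failures removed. The fit had four parameters over log10 doses. Viability came from CellTiter-Glo One luminescence, normalised per plate to DMSO and cell-free wells, after leukemia cells adapted to each medium (500 or 1000 cells/well, 1536-well plates) were exposed to library compounds in DMSO for 48 h at 37°C. The 11 threefold doses ran from 47 μM to 0.79 nM.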

NOMO1 [2] = assay: as above
Method in brief: as §1

P12-Ichikawa [3] = assay: as above
Method in brief: as §1

SEM cells [4] = assay: cell viability relative to DMSO control; higher = less cytotoxic
Method in brief: (§2)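 Viability is a per-plate percentage relative to DMSO wells, with cell-free wells as background. CellTiter-Glo One luminescence was read after 48 h at 37°C on 1536-well plates (5 μl) of NOMO1 or SEM (500 cells/well) or P12-Ichikawa (1000 cells/well) leukemia cells. The cells had been adapted for at least four passages in each medium and pin-dosed with library compounds in DMSO from 47 μM to 0.79 nM in 11 threefold steps.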

NOMO1 [5] = assay: as above
Method in brief: as §2

P12-Ichikawa [6] = assay: as above
Method in brief: as §2

CN(C)C1=CC=C(C=C1)C(C2=CC=C(C=C2)N(C)C)=C/3\C=C/C(/C=C3)=[N+](C)C
AUC of viability dose-response curve
Conditions	NOMO1 [2]	P12-Ichikawa [3]	SEM cells [1]
HPLM + 10% dialyzed FBS	225	253	226
RPMI 5 mM glucose + 10% FBS	232	233	218
RPMI 5 mM glucose + 10% dialyzed FBS	234	240	211

cell viability [%]
Conditions	NOMO1 [5]	P12-Ichikawa [6]	SEM cells [4]
HPLM + 10% dialyzed FBS, 0.000781 µM	102	114	101
HPLM + 10% dialyzed FBS, 0.00234 µM	114	107	98.3
HPLM + 10% dialyzed FBS, 0.00702 µM	136	122	113
HPLM + 10% dialyzed FBS, 0.0211 µM	132	116	98.1
HPLM + 10% dialyzed FBS, 0.0632 µM	103	115	116
HPLM + 10% dialyzed FBS, 0.19 µM	26.6	74.1	9.97
HPLM + 10% dialyzed FBS, 0.569 µM	9.97	18.5	4.77
HPLM + 10% dialyzed FBS, 1.71 µM	4.17	1.52	4.38
HPLM + 10% dialyzed FBS, 5.12 µM	4.13	1.65	4.51
HPLM + 10% dialyzed FBS, 15.4 µM	1.55	1.9	1.71
HPLM + 10% dialyzed FBS, 46.1 µM	0.245	0.24	1.2
RPMI 5 mM glucose + 10% FBS, 0.000781 µM	113	107	–
RPMI 5 mM glucose + 10% FBS, 0.00234 µM	98.4	103	–
RPMI 5 mM glucose + 10% FBS, 0.00702 µM	101	102	–
RPMI 5 mM glucose + 10% FBS, 0.0211 µM	113	111	–
RPMI 5 mM glucose + 10% FBS, 0.0632 µM	107	94.9	–
RPMI 5 mM glucose + 10% FBS, 0.19 µM	27.2	24.6	–
RPMI 5 mM glucose + 10% FBS, 0.569 µM	6.73	14.9	–
RPMI 5 mM glucose + 10% FBS, 1.71 µM	2.46	3.64	–
RPMI 5 mM glucose + 10% FBS, 5.12 µM	2.87	6.36	–
RPMI 5 mM glucose + 10% FBS, 15.4 µM	0.606	4.49	–
RPMI 5 mM glucose + 10% FBS, 46.1 µM	-0.00921	0.553	–
RPMI 5 mM glucose + 10% dialyzed FBS, 0.000781 µM	112	110	104
RPMI 5 mM glucose + 10% dialyzed FBS, 0.00234 µM	101	104	113
RPMI 5 mM glucose + 10% dialyzed FBS, 0.00702 µM	110	115	100
RPMI 5 mM glucose + 10% dialyzed FBS, 0.0211 µM	100	106	85.9
RPMI 5 mM glucose + 10% dialyzed FBS, 0.0632 µM	96.9	94.1	76.1
RPMI 5 mM glucose + 10% dialyzed FBS, 0.19 µM	33.1	34.3	8.49
RPMI 5 mM glucose + 10% dialyzed FBS, 0.569 µM	11.3	19.2	4.28
RPMI 5 mM glucose + 10% dialyzed FBS, 1.71 µM	5.56	10.9	2.86
RPMI 5 mM glucose + 10% dialyzed FBS, 5.12 µM	5.09	12.8	4.04
RPMI 5 mM glucose + 10% dialyzed FBS, 15.4 µM	1.49	3.78	1.22
RPMI 5 mM glucose + 10% dialyzed FBS, 46.1 µM	0.371	0.17	0.974

CN1C[C@H]2c3ccccc3Oc3ccc(Cl)cc3[C@@H]2C1
AUC of viability dose-response curve
Conditions	NOMO1 [2]	P12-Ichikawa [3]	SEM cells [1]
HPLM + 10% dialyzed FBS	440	436	372
RPMI 5 mM glucose + 10% FBS	410	462	395
RPMI 5 mM glucose + 10% dialyzed FBS	418	410	396

cell viability [%]
Conditions	NOMO1 [5]	P12-Ichikawa [6]	SEM cells [4]
HPLM + 10% dialyzed FBS, 0.000781 µM	78.1	88.5	75.4
HPLM + 10% dialyzed FBS, 0.00234 µM	106	86.3	76
HPLM + 10% dialyzed FBS, 0.00702 µM	93.5	83.8	68
HPLM + 10% dialyzed FBS, 0.0211 µM	92.7	90.2	76.3
HPLM + 10% dialyzed FBS, 0.0632 µM	85.6	89.7	80.2
HPLM + 10% dialyzed FBS, 0.19 µM	90	96.8	84
HPLM + 10% dialyzed FBS, 0.569 µM	106	92.5	94.5
HPLM + 10% dialyzed FBS, 1.71 µM	96	96	90
HPLM + 10% dialyzed FBS, 5.12 µM	90.5	91.4	96.3
HPLM + 10% dialyzed FBS, 15.4 µM	93.8	93	85
HPLM + 10% dialyzed FBS, 46.1 µM	82.1	95.8	6.31
RPMI 5 mM glucose + 10% FBS, 0.000781 µM	75.8	96.9	89.6
RPMI 5 mM glucose + 10% FBS, 0.00234 µM	93.6	94.5	80.8
RPMI 5 mM glucose + 10% FBS, 0.00702 µM	88.7	95.6	90.6
RPMI 5 mM glucose + 10% FBS, 0.0211 µM	90.4	97.8	86.7
RPMI 5 mM glucose + 10% FBS, 0.0632 µM	91.3	88.4	71.4
RPMI 5 mM glucose + 10% FBS, 0.19 µM	83.3	95.4	91.7
RPMI 5 mM glucose + 10% FBS, 0.569 µM	80.7	98.2	92.4
RPMI 5 mM glucose + 10% FBS, 1.71 µM	88.2	99	90.6
RPMI 5 mM glucose + 10% FBS, 5.12 µM	80.4	96.7	95.8
RPMI 5 mM glucose + 10% FBS, 15.4 µM	87.3	103	79.3
RPMI 5 mM glucose + 10% FBS, 46.1 µM	85.6	101	5.32
RPMI 5 mM glucose + 10% dialyzed FBS, 0.000781 µM	85.8	87.6	73.5
RPMI 5 mM glucose + 10% dialyzed FBS, 0.00234 µM	86.1	89.7	83.7
RPMI 5 mM glucose + 10% dialyzed FBS, 0.00702 µM	85.4	82.3	76.6
RPMI 5 mM glucose + 10% dialyzed FBS, 0.0211 µM	94.2	87.6	83.3
RPMI 5 mM glucose + 10% dialyzed FBS, 0.0632 µM	87.4	87.5	73.5
RPMI 5 mM glucose + 10% dialyzed FBS, 0.19 µM	95.2	96.6	105
RPMI 5 mM glucose + 10% dialyzed FBS, 0.569 µM	85.2	87	107
RPMI 5 mM glucose + 10% dialyzed FBS, 1.71 µM	83.9	84.5	103
RPMI 5 mM glucose + 10% dialyzed FBS, 5.12 µM	93	80	85.3
RPMI 5 mM glucose + 10% dialyzed FBS, 15.4 µM	82.1	84.3	79.1
RPMI 5 mM glucose + 10% dialyzed FBS, 46.1 µM	85.3	78.1	6.04
